Consider 13 molecules from US9695191B2, “Conformationally constrained, fully synthetic macrocyclic compounds” (POLYPHOR AG, priority 2009, dated 2017).

Data set [1] is described as follows: Metabolic stability, human microsomes. Particulars: 37° C.; for Metabolic Stability 60 min hum: % of the initial 0 minutes value at 60 min, 10 μM; for Metabolic Stability T ½ [min] hum: 10 μM compound, 1 mg/ml microsomal protein, sampling up to 60 min. It counts as in vitro ADME. How it is done:
(§1) Microsomes from a human 50 donor mixed gender pool and 1:1 mixtures of microsomes from CD-1 mouse single-gender pools are purchased from Celsis (Belgium). The enzymatic reaction is performed in a buffer containing an NADPH regeneration system and microsomes with the following end concentrations: 100 mM potassium phosphate buffer (all from Sigma), 1 mg/mL glucose-6-phosphate, 1 mg/mL β-nicotinamide adenine dinucleotide phosphate (NADP), 0.65 mg/mL magnesium chloride, 0.8 units/mL of glucose-6-phosphate dehydrogenase (prediluted with 5 mM citrate buffer), 10 μM compound and 1 mg/ml microsomal protein. Compounds are incubated at 37° C. in duplicates and samples are taken after 0, 20 and 60 minutes. After acetonitrile precipitation (2 volumes) and HPLC/MS/MS analysis metabolic turnover is expressed in % of the initial 0 minutes value and half life T½ (min) is calculated. Verapamil for human and propranolol for mouse are used as reference and are assayed with every experimental set. • F. P. Guengerich, Analysis and Characterization of Enzymes; in: Principles and Methods of Toxicology; A. W. Hayes (Ed.) Raven Press: New York, 1989, 777-813. • R. Singh et al., In vitro metabolism of a potent HIV-protease inhibitor (141W94) using rat, monkey and human liver S9, Rapid Commun. Mass Spectrom. 1996, 10, 1019-1026. 5. Results

The nature of data set [2]: Metabolic stability, CD-1 mouse microsomes. The class given is in vitro ADME. The settings on record: 37° C.; for Metabolic Stability 60 min mouse: % of the initial 0 minutes value at 60 min, 10 μM; for Metabolic Stability T ½ [min] mouse: 10 μM compound, 1 mg/ml microsomal protein, sampling up to 60 min. On the procedure:
as §1

For data set [3] the following is noted: human, 10 μM.
Experimental: (§2) Example compounds were dissolved in DMSO/H2O 90:10 to a final concentration of 10 mM for plasma stability determination and metabolic stability determination.
(§3) Human plasma (3-5 donors, Blutspendedienst SRK, Basel) and CD-1 mouse plasma (mixed gender pool>50 animals, Innovative Research, CA, USA) are both sodium citrate stabilized. The assay is performed in triplicates at 10 μM compound concentration and 37° C. Samples are taken at 0, 15, 60, and 240 minutes and stopped by precipitation with 2 volumes of acetonitrile. The supernatant is collected, evaporated and reconstituted in a 5% acetonitrile solution to be analyzed by HPLC/MS/MS. The resulting peak area counts are expressed in percent of the 0 value and used to determine the endpoint stability in % and the half life T½ in minutes. In order to monitor assay integrity the degradation of propantheline is assayed with every experimental set
For data set [4] the following is noted: both, CD-1, mouse, 10 μM.
Experimental: as §2, §3

For the molecule `CN(C)CCNC(=O)[C@@H]1CCC(=O)N(C)CC(=O)N2C[C@@H](NC(=O)Cc3c[nH]c4ccccc34)C[C@H]2COc2ccc(F)cc2C(=O)N1C` [Ex. 11, (2S,11S,19aS)-N-[2-(dimethylamino)ethyl]-15-fluoro-2-{[2-(1H-indol-3-yl)acetyl]amino}-7,12-dimethyl-5,8,13-trioxo-2,3,6,7,8,9,10,11,12,13,19,19a-dodecahydro-1H,5H-pyrrolo [2,1-c][1,4,7,12]benzoxatriazacyclopentadecine-11-carboxamide], the “Metabolic Stability 60 min hum” value in data set [1] is listed as 74%. In addition, in data set [2], the “Metabolic Stability 60 min mouse” value worked out at 77%. For the same molecule, the “Plasma Stability 240 min hum” value in data set [3] was 100%. For the same molecule, in data set [4], the “Plasma Stability 240 min mouse” value turned out to be 100%.

As for `CC(=O)N[C@H]1C[C@H]2COc3ccc(F)cc3C(=O)N(C)[C@H](C(=O)N3CCCC3)CCC(=O)N(C)CC(=O)N2C1` [Ex. 37, N-[(2S,11S,19aS)-15-fluoro-7,12-dimethyl-5,8,13-trioxo-11-(1-pyrrolidinylcarbonyl)-2,3,6,7,8,9,10,11,12,13,19,19a-dodecahydro-1H,5H-pyrrolo[2,1-c][1,4,7,12]benzoxatriazacyclopentadecin-2-yl]acetamide], in data set [1], the “Metabolic Stability T ½ [min] hum” value was 60 min and the “Metabolic Stability 60 min hum” value is recorded as 100%. Also, in data set [2], the “Metabolic Stability T ½ [min] mouse” value was determined as 60 min and the “Metabolic Stability 60 min mouse” value amounted to 100%. The “Plasma Stability 240 min hum” value in data set [3] stood at 77%. Moreover, in data set [4], the “Plasma Stability 240 min mouse” value is 100%.

Regarding `CCN(CC)[C@H]1C[C@H]2COc3ccc(F)cc3C(=O)N(C)[C@H](C(=O)N3CCCC3)CCC(=O)N(C)CC(=O)N2C1` [Ex. 43, (2S,11S,19aS)-2-(diethylamino)-15-fluoro-7,12-dimethyl-11-(1-pyrrolidinylcarbonyl)-2,3,6,7,9,10,11,12,19,19a-decahydro-1H,5H-pyrrolo[2,1-c][1,4,7,12] benzoxatriazacyclopentadecine-5,8,13-trione], in data set [1], the “Metabolic Stability 60 min hum” value amounted to 100%. The “Metabolic Stability 60 min mouse” value in data set [2] is on record as 98%. Further, the “Plasma Stability 240 min hum” value in data set [3] is given as 82%. The “Plasma Stability 240 min mouse” value in data set [4] stood at 89%.

Take `CN(C)CCNC(=O)[C@@H]1CCC(=O)N(C)CC(=O)N2C[C@@H](NC(=O)Cc3cccc4ccccc34)C[C@H]2COc2ccc(F)cc2C(=O)N1C` [Ex. 49, (2S,11S,19aS)-N-[2-(dimethylamino)ethyl]-15-fluoro-7,12-dimethyl-2-{[2-(1-naphthyl)acetyl]amino}-5,8,13-trioxo-2,3,6,7,8,9,10,11,12,13,19,19a-dodecahydro-1H,5H-pyrrolo[2,1-c][1,4,7,12]benzoxatriazacyclopentadecine-11-carboxamide]: the “Metabolic Stability 60 min hum” value in data set [1] was 10%. In addition, the “Metabolic Stability 60 min mouse” value in data set [2] stood at 83%. The “Plasma Stability 240 min hum” value in data set [3] came to 83%. Moreover, the “Plasma Stability 240 min mouse” value in data set [4] came to 96%.

With `CCCCC(=O)N[C@@H]1C[C@H]2COc3ccc(F)cc3C(=O)N(C)[C@H](C(=O)N(C)CCN(C)C)CCC(=O)N(C)CC(=O)N2C1` [Ex. 78, (2R,11S,19aS)-N-[2-(dimethylamino)ethyl]-15-fluoro-N,7,12-trimethyl-5,8,13-trioxo-2-(pentanoylamino)-2,3,6,7,8,9,10,11,12,13,19,19a-dodecahydro-1H,5H-pyrrolo[2,1-c][1,4,7,12]benzoxatriazacyclopentadecine-11-carboxamide], the “Metabolic Stability 60 min hum” value in data set [1] turned out to be 78%. Moreover, the “Metabolic Stability 60 min mouse” value in data set [2] is recorded as 100%. For the same molecule, the “Plasma Stability 240 min hum” value in data set [3] is 65%. In data set [4], the “Plasma Stability 240 min mouse” value was 100%.

Regarding `CN1CC(=O)N2C[C@@H](N)C[C@H]2COc2ccc(F)cc2C(=O)N(C)[C@@H](C(=O)NCc2ccc3ccccc3c2)CCC1=O` [Ex. 91, (2S,11R,19aS)-2-amino-15-fluoro-7,12-dimethyl-N-(2-naphthylmethyl)-5,8,13-trioxo-2,3,6,7,8,9,10,11,12,13,19,19a-dodecahydro-1H,5H-pyrrolo[2,1-c][1,4,7,12] benzoxatriazacyclopentadecine-11-carboxamide], in data set [1], the “Metabolic Stability 60 min hum” value stood at 91%. For the same molecule, in data set [2], the “Metabolic Stability 60 min mouse” value was 95%. Besides, the “Plasma Stability 240 min hum” value in data set [3] is recorded as 96%. The “Plasma Stability 240 min mouse” value in data set [4] came to 88%.

Regarding `CNC(=O)[C@H]1CCC(=O)N(C)CC(=O)N2C[C@@H](NC(=O)Cc3ccc4ccccc4c3)C[C@H]2COc2ccc(F)cc2C(=O)N1C` [Ex. 93, (2S,11R,19aS)-15-fluoro-N,7,12-trimethyl-2-{[2-(2-naphthyl)acetyl]amino}-5,8,13-trioxo-2,3,6,7,8,9,10,11,12,13,19,19a-dodecahydro-1H,5H-pyrrolo[2,1-c][1,4,7,12] benzoxatriazacyclopentadecine-11-carboxamide], the “Metabolic Stability 60 min hum” value in data set [1] is 1%. Besides, the “Metabolic Stability 60 min mouse” value in data set [2] was 15%. In addition, the “Plasma Stability 240 min hum” value in data set [3] stood at 100%. Moreover, the “Plasma Stability 240 min mouse” value in data set [4] stood at 100%.

With `CN1CC(=O)N2C[C@@H](NC(=O)CCC(=O)O)C[C@H]2COc2ccc(F)cc2C(=O)N(C)[C@@H](C(=O)NCc2ccc3ccccc3c2)CCC1=O` [Ex. 95, 4-[((2S,11R,19aS)-15-fluoro-7,12-dimethyl-11-{[(2-naphthylmethyl)amino]carbonyl}-5,8,13-trioxo-2,3,6,7,8,9,10,11,12,13,19,19a-dodecahydro-1H,5H-pyrrolo [2,1-c][1,4,7,12]benzoxatriazacyclopentadecin-2-yl)amino]-4-oxobutanoic acid], in data set [1], the “Metabolic Stability T ½ [min] hum” value came to 60 min and the “Metabolic Stability 60 min hum” value was 76%. For the same molecule, in data set [2], the “Metabolic Stability T ½ [min] mouse” value amounted to 60 min and the “Metabolic Stability 60 min mouse” value is recorded as 94%. Moreover, the “Plasma Stability 240 min hum” value in data set [3] came out at 100%. In addition, the “Plasma Stability 240 min mouse” value in data set [4] is recorded as 93%.

On to `CN1CC(=O)N2C[C@@H](NC(=O)CN3CCCC3)C[C@H]2COc2ccc(F)cc2C(=O)N(C)[C@@H](C(=O)N2CCCC2)CCC1=O` [Ex. 98, N-[(2S,11R,19aS)-15-fluoro-7,12-dimethyl-5,8,13-trioxo-11-(1-pyrrolidinylcarbonyl)-2,3,6,7,8,9,10,11,12,13,19,19a-dodecahydro-1H,5H-pyrrolo[2,1-c][1,4,7,12]benzoxatriazacyclopentadecin-2-yl]-2-(1-pyrrolidinyl)acetamide], for which the “Metabolic Stability 60 min hum” value in data set [1] came to 97%. Also, the “Metabolic Stability 60 min mouse” value in data set [2] came to 100%. In data set [3], the “Plasma Stability 240 min hum” value was 100%. Besides, in data set [4], the “Plasma Stability 240 min mouse” value is recorded as 78%.

For the molecule `CCCCCCCCCC(=O)N[C@H]1C[C@H]2COc3ccc(F)cc3C(=O)N(C)[C@H](C(=O)NCc3ccc4ccccc4c3)CCC(=O)N(C)CC(=O)N2C1` [Ex. 102, (2S,11S,19aS)-2-(decanoylamino)-15-fluoro-7,12-dimethyl-N-(2-naphthylmethyl)-5,8,13-trioxo-2,3,6,7,8,9,10,11,12,13,19,19a-dodecahydro-1H,5H-pyrrolo[2,1-c][1,4,7,12] benzoxatriazacyclopentadecine-11-carboxamide], the “Metabolic Stability 60 min hum” value in data set [1] worked out at 4%. Moreover, the “Metabolic Stability 60 min mouse” value in data set [2] turned out to be 39%. In addition, the “Plasma Stability 240 min hum” value in data set [3] was 65%. Besides, in data set [4], the “Plasma Stability 240 min mouse” value is 75%.

Turning to `CN(C)CCNC(=O)[C@H]1CCC(=O)N(C)CC(=O)N2CCN(C(=O)Cc3ccc4ccccc4c3)C[C@@H]2COc2ccc(F)cc2C(=O)N1C` [Ex. 138, (12R,20aR)-N-[2-(dimethylamino)ethyl]-16-fluoro-8,13-dimethyl-2-[2-(2-naphthyl)acetyl]-6,9,14-trioxo-1,2,3,4,7,8,9,10,11,12,13,14,20,20a-tetradecahydro-6H-pyrazino[2,1-c][1,4,7,12] benzoxatriazacyclopentadecine-12-carboxamide], the “Metabolic Stability 60 min hum” value in data set [1] amounted to 62%. Besides, in data set [2], the “Metabolic Stability 60 min mouse” value is 99%. Also, the “Plasma Stability 240 min hum” value in data set [3] turned out to be 89%. Also, the “Plasma Stability 240 min mouse” value in data set [4] amounted to 78%.

For the molecule `CCCCCCCCCC(=O)N[C@H]1CN(C)C(=O)c2cccc(c2)OC[C@@H]2C[C@H](NC(=O)Cc3c[nH]c4ccccc34)CN2C(=O)CN(C)C1=O` [Ex. 213, N-[(4S,6S,13S)-6-{[2-(1H-indol-3-yl)acetyl]amino)-11,15-dimethyl-9,12,16-trioxo-2-oxa-8,11,15-triazatricyclo[15.3.1.0^4,8]henicosa-1(21),17,19-trien-13-yl]decanamide], the “Metabolic Stability 60 min hum” value in data set [1] was determined as 0%. Further, the “Metabolic Stability 60 min mouse” value in data set [2] turned out to be 4%.

Regarding `CN1CC(=O)N2C[C@H](NC(=O)Cc3ccc4ccccc4c3)C[C@H]2COc2ccc(cc2)C(=O)N(C)[C@H](C(=O)N2CCCC2)CCC1=O` [Ex. 264, N-[(4S,6R,15S)-11,16-dimethyl-9,12,17-trioxo-15-(1-pyrrolidinylcarbonyl)-2-oxa-8,11,16-triazatricyclo[16.2.2.0^4,8]docosa-1(20),18,21-trien-6-yl]-2-(2-naphthyl)acetamide], the “Metabolic Stability 60 min mouse” value in data set [2] was determined as 32%. For the same molecule, in data set [3], the “Plasma Stability 240 min hum” value is on record as 94%. Besides, the “Plasma Stability 240 min mouse” value in data set [4] is 88%.
